The text below walks through data of US4107309A, “Substituted imidazo[1,2-d]-as-triazines” (American Cyanamid Company, priority 1977, dated 1978).

The subject of assay [1] is mouse passive cutaneous anaphylaxis (IgE and IgG lesions). Description: mouse passive cutaneous anaphylaxis (PCA) test. The format is in vivo. As to conditions: 50 mg./kg intraperitoneally at -1 hour; active if IgE or IgG lesion area significantly smaller than control. The protocol:
Anti-asthma activity was determined by the mouse passive cutaneous anaphylaxis (PCA) test as follows.
Female mice (Charles River Breeding Labs.), weighing 20-22 gm. are inoculated intraperitoneally at approximately three weeks of age with 0.5 ml. of Timothy pollen antigen in complete Freund's adjuvant. The sensitizing antigen is prepared by suspending 60 mg. of Timothy antigen (Phleum pratense) in 6 ml. of Freund's Complete Adjuvant (Difco Labs.). Approximately 3-5 weeks after inoculation, ascitic fluid is removed from responding mice and tested for IgE and IgG type antibody by mouse PCA as follows:
Samples of ascitic fluid are diluted 1:10 and 50 μl are injected intradermally into five mice. The mice are challenged intravenously with antigen and Evans blue dye 48 hours later. Fifteen minutes after challenge, the dorsal skin is removed and examined for blue spots. […]
At -50 hour (relative to antigen challenge at 0 hour) 50 μl of IgE is injected intradermally on the left side of a 25 gm. female mouse, posterior to the axilla at the level of the diaphragm. […] Challenge and reading are performed in serial order so that reading of the assay is essentially blind. […] The largest and smallest diameters of the lesion and a qualitative estimate of intensity of color are recorded. […] IgE and IgG lesions are analyzed independently. […]

Assay [2] relates to mouse skin cyclic-AMP phosphodiesterase. As to the kind of experiment: mouse skin phosphodiesterase (PDE) inhibition test. In kind it is biochemical. As to conditions: for Mouse Skin Phosphodiesterase: test compound 10 ug./ml, active if it inhibits more than theophylline (to 50% of control at 1 mM or to 80% of control at 0.05 mM); for phosphodiesterase activity, % of control: reference level used as activity criterion. An excerpt:
The novel compounds of the present invention are active in inhibiting the enzyme cyclic-AMP phosphodiesterase which is responsible for the metabolism of cyclic adenosine monophosphate which is usually simply referred to as cyclic AMP. As such, they are useful in the treatment of psoriasis, a disease in which the epidermal cyclic AMP levels are reported to be decreased. Also as such, they are useful in the treatment of asthma, since elevated levels of cyclic AMP in most cells are reported to inhibit the release of histamine and other mediators and since elevated levels of cyclic AMP in bronchial smooth muscle are reported to cause bronchodilation. See Ann. Reports in Medicinal Chem., Vol. 10, 197 (1975).
The inhibition of phosphodiesterase is determined by the mouse skin phosphodiesterase (PDE) inhibition test as follows:
Hairless mice (Jackson Laboratories), 3-4 months old are killed by cervical dislocation and their skins removed. Epidermal slices are taken at a thickness of 0.2 mm. The slices are weighed and homogenized at 100 mg./ml. in ice-cold tris-HCl buffer (0.04M, pH 8, containing 0.005M MgCl2). Homogenates are centrifuged at 17,000 × gravity for 30 minutes. The supernatants are divided into aliquots which are stored at -20° C. Dilutions of the PDE are made with tris-HCl buffer just prior to use.
AG1-X2®, 200-400 mesh (a polystyrene anionic exchange resin 8% cross linked from Bio-Rad Lab.) is washed with 0.5N HCl, 0.5N NaOH, 0.5N HCl and repeatedly with double distilled water to pH 5. The resin is allowed to settle and 2 volumes of water are added to one volume of settled resin.
^3 H-Cyclic AMP (21 c/m mole, Schwarz-Mann Inc.) is purified by addition of 0.1 to 0.2 ml. of stock (in 50% ethanol) to 5 ml. of anion exchange resin and 0.4 ml. of tris-HCl buffer. The mixture is vortexed, centrifuged at 1200 × gravity for 5 minutes and the supernatant is discarded. The resin is washed in the same manner eight more times with two volumes of tris-HCl buffer. Resin bound ^3 H-cyclic AMP is eluted by two successive washings with 4 ml. of 0.025N HCl (resin pH = 2.0). After centrifugation, the pooled acid washes containing ^3 H-cyclic AMP are aliquoted and lyophilized. The material is stored dry at -20° C. and reconstituted with tris-HCl buffer just prior to use with a volume sufficient to give approximately 200,000 CPM/0.1 ml.
PDE activity is measured by the method of W. J. Thompson and N. N. Appleman, Biochemistry 10, 311 (1971). Assays are conducted in 12 × 75 mm. polypropylene test tubes. The reaction mixture consists of ^3 H-cyclic AMP (200,000 CPM), unlabeled cyclic AMP, PDE (100 ug. protein) and test compounds which are prepared by dissolving the compounds in methanol at a concentration of 10 mg./ml. and then dilution of tris-HCl buffer. Final concentration of the test compounds in the incubation mixture is 10 ug./ml. The total volume of the incubation mixture is increased to 0.4 ml. with tris-HCl buffer containing 3.75 millimoles of 2-mercaptoethanol. The enzyme is incubated for 10 minutes at room temperature in the presence of the test compounds or buffer prior to the addition of the mixture of ^3 H-cyclic AMP and unlabeled cyclic AMP. Reactions are run at 30° C. for 15 minutes and then terminated by immersing in acetone-dry ice until frozen, followed by boiling for 3 minutes. […]

For the compound `CN1CCN(c2nncc3nccn23)CC1` [5-(4-Methyl-1-piperazinyl)-imidazo[1,2-d]-as-triazine], the “MOUSE PCA TEST” value in assay [1] is given as “Accept”. The “Mouse Skin Phosphodiesterase” value in assay [2] is on record as “Active”.
With `c1coc(CNc2nncc3nccn23)c1` [5-(Furfurylamino)-imidazo[1,2-d]-as-triazine], in assay [2], the “Mouse Skin Phosphodiesterase” value is reported as “Active”.
Consider `CSc1nncc2nccn12` [5-(Methylthio)-imidazo[1,2-d]-as-triazine], for which the “Mouse Skin Phosphodiesterase” value in assay [2] is “Active”.
`Cn1c(=O)c2[nH]cnc2n(C)c1=O` [theophylline, reference compound]: the “phosphodiesterase activity, % of control” value in assay [2] (0.05 mM concentration) was 80 % of control; in assay [2] (1 mM concentration) it was 50 % of control.
